{
  "source": "paper PMC2784364",
  "about": "“VX-166: a novel potent small molecule caspase inhibitor as a potential therapy for sepsis” (Critical Care, 2009)",
  "key": {"[1]": {"system": "Jurkat cells", "assay": "Staurosporine induced apoptosis in Jurkat cells, Annexin V", "type": "cell-based", "settings": "Human Jurkat cell line/Annexin V, n = 4, read-out: IC50, inhibition of apoptosis", "description": "(§1) Jurkat cells were obtained from LGC Standards (Teddington, UK) and were grown in RPMI 1640, 10% FCS, 2 mM L-glutamine, 100 U/ml penicillin and 0.1 mg/ml streptomycin (all from Sigma Aldrich Ltd., Poole, UK) at 37°C in 5% CO2/95% humidity. Receptor- or stress-mediated apoptosis (2 × 10^5 cells/ml) was induced by addition of either anti-Fas antibody CH-11 (10 ng/ml, Millipore UK Ltd., Watford, UK), TNF-α (20 ng/ml, R&D Systems, Abingdon, UK) with cycloheximide (112 ng/ml, Sigma Aldrich Ltd., Poole, UK) or staurosporine (350 ng/ml, Sigma Aldrich Ltd., Poole, UK). VX-166 was diluted into DMSO (10 mM), further diluted in media and added at a range of concentrations. Cells were then incubated for 18 hours. Apoptotic cells were then labelled with Cy5-conjugated Annexin-V (BD Biosciences, Oxford, UK) and detected using a FMAT™ 8100 Fluorimetric Microassay Technology Reader (Applied Biosystems, Warrington, UK). For the experiments using anti-Fas antibody, apoptosis was additionally measured using a Cell Death Detection ELISA kit (Roche Diagnostics Ltd., Lewes, UK) following the manufacturer's instructions."}, "[2]": {"system": "IL-1β", "assay": "CLP rat, plasma IL-1β by ELISA", "type": "in vivo", "settings": "20 hours, 25 mg/ml pump, n = 10, P < 0.05", "description": "CLP studies were performed in accordance with the National Institutes of Health guidelines for the use of experimental animals and were approved by the Institutional Animal Care and Use Committee of the Feinstein Institute for Medical Research. Adult male Sprague-Dawley rats (weighing 275 to 325 g, Charles River Laboratories, Wilmington, MA, USA) were fasted overnight then anaesthetised with isoflurane. The caecum was exposed via a 2 cm midline incision. It was ligated just distal to the ileocaecal valve, then punctured twice with an 18-gauge needle and gently squeezed to release a small amount of faecal material to ensure patency of the perforation sites before the abdominal incision was closed. Sham-operated rats underwent the same procedure with the exception that the caecum was neither ligated nor punctured. […]\nBlood samples were centrifuged at 1500 g for 15 minutes at 4°C, the plasma was removed and stored at -80°C until analysis. Plasma IL-1β levels were determined by ELISA (R&D Systems Inc., Minneapolis, MN, USA) following the manufacturer's instructions. Plasma endotoxin levels were determined using a Limulus amebocyte lysate (LAL) kit (Associates of Cape Cod, Inc., East Falmouth, MA, USA) according to the manufacturer's instruction. […] The optical density was determined at 405 nm using a spectrophotometer. The levels of endotoxin were then calculated and expressed as EU/ml."}, "[3]": {"biological_target": "T1, granzyme B (Homo sapiens, UniProt P10144)", "T1 construct": "purchased Merck Biosciences Ltd. (Nottingham, UK)", "T1 sequence (P10144 21-247, species assumed)": "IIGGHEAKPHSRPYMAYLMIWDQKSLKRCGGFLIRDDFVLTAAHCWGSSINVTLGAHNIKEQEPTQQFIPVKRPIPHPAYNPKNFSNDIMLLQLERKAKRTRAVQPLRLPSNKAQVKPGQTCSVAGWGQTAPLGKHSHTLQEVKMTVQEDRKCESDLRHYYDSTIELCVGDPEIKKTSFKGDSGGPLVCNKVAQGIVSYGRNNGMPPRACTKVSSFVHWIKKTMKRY", "assay": "Granzyme B counter-screen", "type": "biochemical", "settings": "at 50 μM", "description": "Active recombinant caspase-1, -3, -4, -7 and -8 were prepared as described previously. Caspase-2 was purchased from Biomol (Exeter, UK), caspase-6 from BD Biosciences (Oxford, UK), caspase-9 from Europa Bioproducts Ltd. (Cambridge, UK) and caspase-10 from Chemicon International Inc. (Harrow, UK). Cathepsin B and granzyme B were purchased from Merck Biosciences Ltd. (Nottingham, UK). Fluorogenic protease substrates were purchased from Bachem Ltd. (St. Helens, UK). All reactions were carried out at 37°C using a Molecular Devices (Wokingham, UK) Gemini plate-reader at 460 nm (excitation wavelength of 390 nm). Caspase inhibition assays were conducted, with minor modifications, as described by Margolin and colleagues. Irreversible kinetics were analysed by calculations of second-order inactivation rate constants (k) using GraphPad (La Jolla, CA, USA) Prism 4.0 software. A larger number for an inactivation rate constant indicates a greater degree of inactivation. To determine the inhibitory effect on cathepsin B, 4.25 nM of the enzyme were added to 250 μM z-RR-AMC in 10 mM 2-morpholino-ethanesulfonic acid pH 6.0, 1 mM DTT, 1 mM EDTA and 0.03% Brij35 in the presence or absence of VX-166 and the reaction monitored continuously over 15 minutes. Granzyme B was assayed, with minor modifications, as described by Thornberry and colleagues. […]"}, "[4]": {"system": "Jurkat cells", "assay": "TNF-α/cycloheximide induced apoptosis in Jurkat cells, Annexin V", "type": "cell-based", "settings": "Human Jurkat cell line/Annexin V, n = 4, read-out: IC50, inhibition of apoptosis", "description": "as §1"}, "[5]": {"system": "Jurkat cells", "assay": "Anti-Fas induced apoptosis in Jurkat cells, DNA fragmentation (Cell Death Detection ELISA)", "type": "cell-based", "settings": "Human Jurkat cell line/DNA fragmentation, n = 4, read-out: IC50, inhibition of apoptosis", "description": "as §1"}},
  "data": [
    {"smiles": "CCC(C(=O)NC(CC(=O)O)C(=O)COc1c(F)c(F)cc(F)c1F)n1cccc(NC(=O)OC)c1=O", "note": "(centres unmarked) [VX-166]", "values": [
      {"measurement": "IC50", "setting": "[1]", "value": "255 ± 155", "unit": "nM"},
      {"measurement": "plasma IL-1β level vs vehicle CLP", "setting": "[2]", "value": "significant reduction"},
      {"measurement": "inhibitory activity against granzyme B", "setting": "[3]", "value": "did not show any inhibitory activity"},
      {"measurement": "IC50", "setting": "[4]", "value": "120 ± 50", "unit": "nM"},
      {"measurement": "IC50", "setting": "[5]", "value": "45 ± 7", "unit": "nM"}
    ]}
  ]
}
